Source: patent US11407812B2, “Targeted expression of chloride channels and methods of use thereof” (GOLEINI INC., priority 2015, dated 2022)

How the values were obtained:
[1] = system: SNI model of neuropathic pain in the rat; assay: Spared nerve injury (SNI) model of neuropathic pain, von Frey withdrawal threshold (Example 5); assay type: in vivo; settings: for withdrawal threshold / reduction of the allodynic response: Control vector animals
From the text: Under isoflurane anesthesia the skin on the lateral surface of the thigh was incised and a section made directly through the biceps femoris muscle exposing the sciatic nerve and its three terminal branches: the sural, common peroneal and tibial nerves. The SNI procedure comprised an axotomy and ligation of the tibial and common peroneal nerves leaving the sural nerve intact. The common peroneal and the tibial nerves were tight-ligated with 5.0 silk and sectioned distal to the ligation, removing 2±4 mm of the distal nerve stump. Great care was taken to avoid any contact with or stretching of the intact sural nerve. Muscle and skin were closed in two layers (Decosterd I. and Woolf C. (2000) Pain 87(2):149-158). In the current study this was considered as Day 0.
Testing was performed during the day portion of the circadian cycle only (06:00-18:00 h). Rats were placed in an inverted plastic cage on an elevated wire mesh platform which allowed full access to the paws. Behavioral accommodation was allowed for approximately 15 min, until cage exploration and major grooming activities ceased. The area tested was the lateral region of the plantar left hind paw, in the sural nerve distribution, avoiding the less sensitive tori (footpads). The paw was touched with 1 of a series of 8 von Frey filaments with logarithmically incremental stiffness (0.41, 0.70, 1.20, 2.00, 3.63, 5.50, 8.50, and 15.10 g) (Stoelting). The von Frey filament was presented perpendicular to the plantar surface with sufficient force to cause slight buckling against the paw, and held for approximately 6-8 s. Stimuli were presented at intervals of several seconds, allowing for apparent resolution of any behavioral responses to previous stimuli. A positive response was noted if the paw was sharply withdrawn. Flinching immediately upon removal of the hair was also considered a positive response. Ambulation was considered an ambiguous response, and in such cases the stimulus was repeated. Based on observations on normal, un-operated rats, the cut-off of a 15.10 g filament (˜10% of the body weight of the smaller rats) was selected as the upper limit for testing, since stiffer filaments tended to raise the entire limb rather than to buckle, substantially changing the nature of the stimulus (Chaplan S. et al. (1994) J Neurosci Methods 53(1): 55-63).
One day prior to the surgery (Day −1) animals were tested for their baseline response to mechanical stimulation (mechanical sensitivity). At 10 days post-surgery all animals were re-tested for their mechanical sensitivity.
At days 13, 22 and 35 post-treatment (days 23, 32 and 45 post-surgery) animals were re-evaluated for their mechanical sensitivity. For all of these measurements the operator was blinded as to the identity of the animals.
At day 36 post-treatment (day 46 post-surgery) the animals were dosed with gabapentin (100 mg/kg: IP). At 1 hour and 2 hours post-gabapentin administration the animals were evaluated for their sensitivity to mechanical stimulation.
The 50% withdrawal threshold was determined using the up-down method of Dixon (Chaplan S. et al. (1994) J Neurosci Methods 53(1):55-63; Dixon W J. (1980) Ann. Rev. Pharmacol. Toxicol. 20:441-462). In this paradigm, testing was initiated with the 2.0 g filament, in the middle of the series. Stimuli were always presented in a consecutive fashion, whether ascending or descending. In the absence of a paw withdrawal response to the initially selected filament, a stronger stimulus was presented; in the event of paw withdrawal, the next weaker stimulus was chosen. According to Dixon, optimal threshold calculation by this method requires 6 responses in the immediate vicinity of the 50% threshold. Since the threshold is not known, strings of similar responses may be generated as the threshold is approached from either direction.

[2] = in vivo; cited from earlier work
[3] = system: GlyR; settings: read-out: EC50 for gating of GlyR; cited from earlier work
[4] = target: T1, GlyR α-subunit (hGlyRa1) (Homo sapiens, UniProt P23415); assay: FLIPR membrane potential assay in HEK-293 cells expressing hGlyRa1; assay type: cell-based
T1 construct: P2A-mEYFP (C); host or cells: HEK-293
T1 sequence (P23415 29-457): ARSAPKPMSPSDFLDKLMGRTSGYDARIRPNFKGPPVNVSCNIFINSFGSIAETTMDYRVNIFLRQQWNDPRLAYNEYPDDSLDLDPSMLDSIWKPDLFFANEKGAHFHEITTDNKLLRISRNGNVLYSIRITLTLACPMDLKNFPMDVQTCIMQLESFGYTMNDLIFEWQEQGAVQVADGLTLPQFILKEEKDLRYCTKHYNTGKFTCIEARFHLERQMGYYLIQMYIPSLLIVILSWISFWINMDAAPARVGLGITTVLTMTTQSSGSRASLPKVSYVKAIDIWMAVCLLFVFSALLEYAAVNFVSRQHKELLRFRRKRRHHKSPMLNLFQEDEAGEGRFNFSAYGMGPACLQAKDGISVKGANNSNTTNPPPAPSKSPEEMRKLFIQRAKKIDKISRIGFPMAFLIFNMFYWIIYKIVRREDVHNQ
Experimental: For FlexStation assays, HEK-293 cells were plated at 20,000 cells/well, with a plating volume of 100 μl/well, in a black-sided/clear-bottomed 96-well imaging plate (BD Falcon #353219). For transfection, […] in 750 μl Opti-MEM (Gibco 31985-070) was mixed with 30 μl ExpressFect in 750 μl Opti-MEM, pre-incubated for 20 minutes, and then added at 15 μl/well to cells containing 100 μl fresh culture media. Cells were transfected 24 hours after plating and assayed 48 hours after transfection.
A fluorescence-based assay employing the FLIPR Membrane Potential Assay Kit, BLUE formulation, (Molecular Devices, #R8042) was used to detect voltage changes across the cell membrane. Dye loading buffer was prepared according to package literature. Specifically, the contents of one vial of BLUE reagent was dissolved with 5 ml of 1×Assay Buffer, followed by a wash of the vial with another 5 ml of 1× Assay Buffer, to yield a total volume of 10 ml of dye loading buffer. Unused portions of dye loading buffer were stored at −20° C. and used within 5 days. […] Cells were then loaded with 50 μl of Blue dye loading buffer and incubated for 40 min at 37° C./5% CO2. The signal was detected using the FlexStation 3 multimode benchtop microplate reader operated by SoftMax Pro Data Acquisition & Analysis Software (Molecular Devices). Excitation and emission wavelengths were set at 530 nm and 565 nm, respectively, with an emission cut-off of 550 nm. Plate reads were performed at 30° C. with a ‘Low PMT’ setting. […] Other FlexStation parameters included a pipette height of 130 an initial well volume of 100 μl, a transfer volume of 50 μl (therefore, drug concentrations were prepared 3×), and a transfer rate setting of 2, corresponding to ˜31 μl/sec.

[5] = system: wild-type α-subunit of the GluCl glutamate receptor; assay: FLIPR membrane potential assay in HEK-293 cells expressing wild-type GluCl α-subunit; assay type: cell-based, Caenorhabditis elegans
Experimental: Cells were transfected 24 hours after plating and assayed 48 hours after transfection.
A fluorescence-based assay employing the FLIPR Membrane Potential Assay Kit, BLUE formulation, (Molecular Devices, #R8042) was used to detect voltage changes across the cell membrane. Dye loading buffer was prepared according to package literature. Specifically, the contents of one vial of BLUE reagent was dissolved with 5 ml of 1× Assay Buffer, followed by a wash of the vial with another 5 ml of 1× Assay Buffer, to yield a total volume of 10 ml of dye loading buffer. Unused portions of dye loading buffer were stored at −20° C. and used within 5 days. For the functional assay, culture medium was removed from the cells and replaced with 50 DMEM. Cells were then loaded with 50 μl of Blue dye loading buffer and incubated for 40 min at 37° C./5% CO2. The signal was detected using the FlexStation 3 multimode benchtop microplate reader operated by SoftMax Pro Data Acquisition & Analysis Software (Molecular Devices). Excitation and emission wavelengths were set at 530 nm and 565 nm, respectively, with an emission cut-off of 550 nm. Plate reads were performed at 30° C. with a ‘Low PMT’ setting. Run times, of which the first 20 s measured basal fluorescence, were 300 s for ivermectin-induced signals. […]

[6] = target: T2, L9′A mutated GluCl α-subunit (GluCl*) (Caenorhabditis elegans, UniProt G5EBR3, L315A); assay type: cell-based; settings: increasing doses of ivermectin, cells expressing GluCl*
T2 construct: expressed in transfected cells; host or cells: HEK-293

[7] = system: Human airway smooth muscle (HASM) cells; assay: Histamine-induced increase in intracellular Ca++ (Fluo 8); assay type: cell-based
Experimental: Human airway smooth muscle (HASM) cells were derived from tracheas obtained from the National Disease Research Interchange (Philadelphia, Pa., USA) and from the International Institute for the Advancement of Medicine (Edison, N.J., USA). The cells were cultured in Ham's F-12 medium supplemented with 10% FBS, 100 U mL^−1 penicillin, 0.1 mg mL^−1 streptomycin and 2.5 mg mL^−1 amphotericin B, and this medium was replaced every 72 h. HASM cells in subculture during passages 1-5 were used, because these cells retain the expression of native contractile protein. The HASM cells were derived from healthy normal donors.
Cells were serum starved for 24 hr and loaded with Fluo 8 calcium sensing dye for 1 hr prior to stimulation with histamine. […] All data from both studies is expressed as relative fluorescent units.

[8] = system: HEK-293 cells; assay type: cell-based, human; settings: 48 hours post-transfection
Experimental: […]. […] […]. […] Five separate wells were evaluated for each condition (un-transfected, mock-transfected, GluCl and GluCl*).

T2 sequence (G5EBR3 21-461 L315A): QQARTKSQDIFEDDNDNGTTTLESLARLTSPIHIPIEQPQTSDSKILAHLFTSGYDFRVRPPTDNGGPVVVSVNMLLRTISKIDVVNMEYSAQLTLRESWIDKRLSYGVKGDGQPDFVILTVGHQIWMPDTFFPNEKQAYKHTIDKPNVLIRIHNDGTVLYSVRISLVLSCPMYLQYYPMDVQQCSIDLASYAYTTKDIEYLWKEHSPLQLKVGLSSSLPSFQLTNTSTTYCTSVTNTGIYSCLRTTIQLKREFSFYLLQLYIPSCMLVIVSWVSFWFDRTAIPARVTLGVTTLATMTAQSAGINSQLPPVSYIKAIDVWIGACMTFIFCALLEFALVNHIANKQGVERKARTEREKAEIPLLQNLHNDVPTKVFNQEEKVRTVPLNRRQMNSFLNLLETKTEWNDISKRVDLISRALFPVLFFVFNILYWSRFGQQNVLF

NCC1(CC(=O)O)CCCCC1 [Gabapentin]
withdrawal threshold ([1]; 1 hour post dose, 100 mg/kg IP): 3.44 ± 0.36 g | reduction of the allodynic response ([1]; 1 hour post-dose, 100 mg/kg IP): 25% | withdrawal threshold ([1]; 2 hours post dose, 100 mg/kg IP): 4.15 ± 0.19 g | reduction of the allodynic response ([1]; 2 hours post-dose, 100 mg/kg IP): 44% | withdrawal threshold ([1]; pre-dose, day 46 post-surgery): 2.46 ± 0.49 g | effect on response to mechanical stimulation in animals previously treated with GTX-01* ([1]; rat, in vivo): no effect

NCC(=O)O [Glycine]
half-life in the body [2]: 26 to 245 min | EC50 [3]: ~100 µM | EC100 of change in membrane potential ([4]; HEK-293 cells expressing hGlyRa1): approximately 300 μM

Ivermectin
EC50 ([5]; HEK-293 cells expressing wild-type GluCl α-subunit alone, 4.5 minutes post addition, read-out: EC50 of change in membrane potential): 0.147 µM | effect of ivermectin on change in membrane potential [6]: did not augment the change in membrane potential

NCCS(=O)(=O)O [Taurine]
effect on membrane potential ([4]; taurine 1 μM to 1 mM, monomeric hGlyRa1 channel): no direct effect

B1: hGlyRa1 (protein, listed as Homo sapiens)
chain: MYSFNTLRLYLWETIVFFSLAASKEAEAARSAPKPMSPSDFLDKLMGRTSGYDARIRPNFKGPPVNVSCNIFINSFGSIAETTMDYRVNIFLRQQWNDPRLAYNEYPDDSLDLDPSMLDSIWKPDLFFANEKGAHFHEITTDNKLLRISRNGNVLYSIRITLTLACPMDLKNFPMDVQTCIMQLESFGYTMNDLIFEWQEQGAVQVADGLTLPQFILKEEKDLRYCTKHYNTGKFTCIEARFHLERQMGYYLIQMYIPSLLIVILSWISFWINMDAAPARVGLGITTVLTMTTQSSGSRASLPKVSYVKAIDIWMAVCLLFVFSALLEYAAVNFVSRQHKELLRFRRKRRHHKSPMLNLFQEDEAGEGRFNFSAYGMGPACLQAKDGISVKGANNSNTTNPPPAPSKSPEEMRKLFIQRAKKIDKISRIGFPMAFLIFNMFYWIIYKIVRREDVHNQ
effect on histamine-induced increase in intracellular Ca [7]: antagonized | unstimulated change in membrane potential [4]: no unstimulated change in membrane potential

B2: wild-type GluCl α-subunit: fluorescently tagged Caenorhabditis elegans GluCl α-subunit, wild type, expressed from plasmid (protein, UniProt G5EBR3 21-461, looked up)
Glutamate-gated chloride …: QQARTKSQDIFEDDNDNGTTTLESLARLTSPIHIPIEQPQTSDSKILAHLFTSGYDFRVRPPTDNGGPVVVSVNMLLRTISKIDVVNMEYSAQLTLRESWIDKRLSYGVKGDGQPDFVILTVGHQIWMPDTFFPNEKQAYKHTIDKPNVLIRIHNDGTVLYSVRISLVLSCPMYLQYYPMDVQQCSIDLASYAYTTKDIEYLWKEHSPLQLKVGLSSSLPSFQLTNTSTTYCTSVTNTGIYSCLRTTIQLKREFSFYLLQLYIPSCMLVIVSWVSFWFDRTAIPARVTLGVTTLLTMTAQSAGINSQLPPVSYIKAIDVWIGACMTFIFCALLEFALVNHIANKQGVERKARTEREKAEIPLLQNLHNDVPTKVFNQEEKVRTVPLNRRQMNSFLNLLETKTEWNDISKRVDLISRALFPVLFFVFNILYWSRFGQQNVLF
unstimulated change in membrane potential ([5]; no agonist, monomeric expression in HEK-293): no unstimulated change in membrane potential | cell viability [8]: 91.8%
